From paper PMC4317238 (Pharmacology Research & Perspectives, 2015)
Ends that are not written are not given here.

Assays:
[1] = tested on: NPSR(−/−) mice; assay: Recovery of righting reflex; assay type: in vivo, mouse (congenic to CD-1); settings: diazepam 15 mg/kg i.p.
[2] = target: T1, mouse NPS receptor (NPSR) (Mus musculus, UniProt Q8BZP8); assay: Calcium mobilization assay, agonist; assay type: cell-based; settings: HEK293mNPSR; mean ± SEM
T1 sequence (Q8BZP8 1-371): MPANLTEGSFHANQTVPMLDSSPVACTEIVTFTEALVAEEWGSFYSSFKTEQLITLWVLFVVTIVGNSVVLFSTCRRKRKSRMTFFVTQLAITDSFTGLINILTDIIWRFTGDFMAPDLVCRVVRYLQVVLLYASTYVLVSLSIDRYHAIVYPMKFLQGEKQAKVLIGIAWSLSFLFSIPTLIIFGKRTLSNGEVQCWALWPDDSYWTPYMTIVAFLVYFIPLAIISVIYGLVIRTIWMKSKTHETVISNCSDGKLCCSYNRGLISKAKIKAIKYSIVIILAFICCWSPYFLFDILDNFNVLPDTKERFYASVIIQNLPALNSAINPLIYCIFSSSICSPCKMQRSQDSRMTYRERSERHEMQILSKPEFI

[3] = tested on: their receptors; settings: ref Rizzi et al. 2014; Ruzza et al. 2014; cited from earlier work
[4] = cited from earlier work

Q: For `CN1C(=O)CN=C(c2ccccc2)c2cc(Cl)ccc21` [diazepam], which “sensitivity to diazepam, NPSR wild type vs. knockout” value [1] is on record?
A: Its value is “no differences were measured”.

Q: For “SFRNGVGTGMKKTSFQRAKS [NPS, neuropeptide S]”, which “Emax (increase in intracellular calcium)” value [2] is on record?
A: Its value is 417 ± 34 % over the basal levels.

Q: With neurokinin A [NK-A] as the compound, how does the “potency relative to PWT derivative, calcium mobilization” value [3] read?
A: The value was “more potent than their PWT derivatives”.

Q: With nociceptin/orphanin FQ [N/OFQ] as the compound, how does the “duration of action, N/OFQ” value ([4]; ref Rizzi et al. 2014) read?
A: Its value is roughly 20 min.

Q: And the “potency relative to PWT derivative, calcium mobilization” value [3]?
A: The value was “more potent than their PWT derivatives”.

Q: What does the source list for substance P [SP]?
A: duration of action, SP and PWT2-SP ([4]; ref Ruzza et al. 2014): ~5 min; potency relative to PWT derivative, calcium mobilization [3]: more potent than their PWT derivatives
